Where “and” joins values, the source holds several entries; their conditions need not be identical. Equal values may be shown once. Entries after “also recorded” stand apart in the source; their conditions may differ. Marks after values point to notes of the source that are not given here.
Experiments:
melanoma = assay: Simultaneous intratumoral and intravenous administration (data not shown); format: in vivo
Protocol: A possibility of simultaneous intratumoral and intravenous administration of the composition comprising 64Zne(Asp)2 was assessed in additional experiments (data not shown).

B16 melanoma = B16 melanoma tumor growth and survival in mice, intratumoral administration; format: in vivo, C57Bl/J6 mice; design: key to presence or absence of tumor, individual animals: Tumor−: absence of tumor growth; Tumor+: presence of tumor; key to tumor volume, individual animals: tumor volume in mm^3, ellipsoid V = 4/3×π×a×b×c from radii; conditions: for size of melanoma reduced compared to control: drug administered on the 11th day after inoculation; for tumor volume, individual animals: group 2, individual regimens
Protocol: B16 melanoma cells having the following characteristic were used in the experiment: • Origin: Mus musculus skin (C57BL/6 mouse) • Characteristics of tumor growth: short incubation period, rapid growth, absence of spontaneous metastases. • Tumor inoculability is 100%. The minimum dose of cells that causes tumor growth for this melanoma is only 100 to 1000 per subcutaneous injection in the mouse.
15 female C57Bl/J6 mice (5 mice per group) at the age of 10-12 weeks, weighing 18-22 g were used in the experiment.
B16 melanoma cells were cultured in vitro under standard conditions. For transplantation, tumor cells in the exponential phase were removed from the substrate with 0.02% Versene solution and the suspension cellularity and viability was evaluated in the presence of trypan blue in a hemocytometer and the suspension was adjusted to a concentration of 10^7 cells/ml by dilution with saline solution. Melanoma cells were injected intracutaneously (i.e.) in 0.05 ml of the suspension (0.5×10^6 cells/mouse) into the animal's back region. 24 hours before the injection of tumor cells, the wool cover on the back of each mouse was removed with depilation cream.
Grouping. The animals were divided into groups as follows: • Group No. 1: control group, mice injected i.e. with B16 melanoma cells; • Group No. 2: mice injected i.e. with B16 melanoma cells+intratumoral injections of ^64Zne(Asp)2 at day 5 after the tumor cells were inoculated. • Group No. 3: mice injected i.e. with B16 melanoma cells+intratumoral injections of ^64Zne(Asp)2 at day 11 after the tumor cells were inoculated
The composition to be administered was prepared immediately prior to its administration. ^64Zne(Asp)2 was dissolved in deuterium-depleted water with addition of 1% DMSO. Animals in group No. 2 were injected with the composition comprising ^64Zne(Asp)2 intratumorally and around the area of tumor growth at a dose of 200 μg/mouse in a volume of 20 μl/mouse after the tumor reached 0.5 cm in diameter (at day 5 after i.e. administration of the tumor cells).
Animals in group No. 3 were injected with the composition comprising ^64Zne(Asp)2 intratumorally and around the area of tumor growth at a dose of 300 μg/mouse in a volume of 30 μl/mouse at day 11 after i.e. administration of the tumor cells. […] 24 hours after the first injection and then a series of injections were given every other day. ^64Zne(Asp)2 was administered intratumorally every other day for 10 days, 5 times in total.
Regarding the 3rd group: group 3 mice received 300 mcg/mouse of ^64Zne in the form of ^4Zne aspartate on the 11th day and 200 mcg/mouse of ^4Zne aspartate on the 13th, 15th, 17th and 19th days after tumor cell injection.
The anti-tumor efficacy of ^64Zne(Asp)2 was evaluated on the basis of the growth dynamics of melanoma tumors estimated based on the changes in tumor volume according to generally accepted rules.
From the time the experimental tumors reached 0.3-0.5 cm in diameter and every 2-3 days thereafter, the size of each tumor node in experimental animals was measured in three orthogonal planes (width×length×height (W×L×H)) and the tumor volume was calculated by use of the following formula for the volume of ellipsoid: V= 4/3×πabc; where V is the tumor volume (mm^3); a, b, c is the rumor radius (mm): a is the radius along the x axis, b is the radius along the y axis, c is the radius along the z axis.

Structure (SMILES): N[C@@H](CC(=O)[O-])C(=O)[O-].[Zn+2] [^64Zne(Asp)2, Zinc L-aspartate]
- suppression of the metastatic process (tumor size, surviving animals, number of metastases), words (melanoma): confirmed the efficacy
- size of melanoma reduced compared to control (B16 melanoma; 21st day): 85%
- size of melanoma reduced compared to control (B16 melanoma; 24th day): 75.6%
- tumor volume, individual animals (B16 melanoma; 4 day after tumor cell inoculation (before 1st injection)): 14.1 and 33.5 and 24.4 (2×) and 25
- tumor volume, individual animals (B16 melanoma; 6 day): 14.1 (3×) and 33.5 and 65.4
- tumor volume, individual animals (B16 melanoma; 10 day): 24.4 (2×) and 14 (2×) and 51
- tumor volume, individual animals (B16 melanoma; 12 day): 24.4 and 14 (3×) and 116.4
- local finding at tumor site, individual animal (B16 melanoma; 13 day, group 2): Eschar
- presence or absence of tumor, individual animals (B16 melanoma; 13 day, group 2): Tumor +/
- tumor volume, individual animals (B16 melanoma; 14 day): 14 (2×) and 4.2 and 38.4 and 9.2
- tumor volume, individual animals (B16 melanoma; 17 day): 4.2 (3×) and 65.4 and 14
- presence or absence of tumor, individual animals (B16 melanoma; 18 day, group 2): Tumor +/
- tumor volume, individual animals (B16 melanoma; 21 day): 0 (3×) and 179.6 and 33.5
- presence or absence of tumor, individual animals (B16 melanoma; 22 day, group 2): Tumor +/
- tumor volume, individual animals (B16 melanoma; 24 day): 25.4 and 0 (2×) and 282.7 and 33.5
- Tumor necrosis, individual animal (B16 melanoma; 25 day, group 2): necrosis
- presence or absence of tumor, individual animals (B16 melanoma; 25 day, group 2): Tumor +/
- death of individual animal (B16 melanoma; 28 day, group 2): Died*
- presence or absence of tumor, individual animals (B16 melanoma; 28 day, group 2): Tumor−; also recorded: Tumor +/
- tumor volume, individual animals (B16 melanoma; 28 day): 33.2 and 0 (2×) and 641 and 102.6
- presence or absence of tumor, individual animals (B16 melanoma; 36 day, group 2): Tumor +/; also recorded: Tumor−
- Tumor necrosis, individual animal (B16 melanoma; 39 day, group 2): necrosis
- presence or absence of tumor, individual animals (B16 melanoma; 39 day, group 2): Tumor+; also recorded: Tumor−; also recorded: Tumor +/
- death of individual animal (B16 melanoma; 43 day, group 2): Died*
- presence or absence of tumor, individual animals (B16 melanoma; 43 day, group 2): Tumor+; also recorded: Tumor−
- presence or absence of tumor, individual animals (B16 melanoma; 55 day, group 2): Tumor−
- Tumor necrosis, individual animal (B16 melanoma; 58 day, group 2): necrosis
- presence or absence of tumor, individual animals (B16 melanoma; 58 day, group 2): Tumor +/; also recorded: Tumor−
- death of individual animal (B16 melanoma; 61 day, group 2): Died*
- presence or absence of tumor, individual animals (B16 melanoma; 61 day, group 2): Tumor−
- Tumor volume (M ± m) (B16 melanoma; day 4 after inoculation (before first injection), group 2: intratumoral 200 μg/mouse at day 5): 24.3 mm^3
- Tumor volume (M ± m) (B16 melanoma; day 4 after inoculation (before first injection), group 3: intratumoral 300 μg/mouse at day 11, then 200 μg/mouse): 27 mm^3
- Number of alive mice (B16 melanoma; day 4 after inoculation, group 2: intratumoral at day 5, 5 animals per group): 100%
- Number of alive mice (B16 melanoma; day 4 after inoculation, group 3: intratumoral at day 11, 5 animals per group): 100%
- Number of alive mice (B16 melanoma; day 6, group 2: intratumoral at day 5): 100%
- Number of alive mice (B16 melanoma; day 6, group 3: intratumoral at day 11): 100%
- Tumor volume (M ± m) (B16 melanoma; day 6 after inoculation (before first injection), group 3: intratumoral 300 μg/mouse at day 11, then 200 μg/mouse): 63 mm^3
- Tumor volume (M ± m) (B16 melanoma; day 6 after inoculation, group 2: intratumoral 200 μg/mouse at day 5): 28.2 mm^3
- Number of alive mice (B16 melanoma; day 9, group 2: intratumoral at day 5): 100%
- Number of alive mice (B16 melanoma; day 9, group 3: intratumoral at day 11): 100%
- Tumor volume (M ± m) (B16 melanoma; day 9 after inoculation (before first injection), group 3: intratumoral 300 μg/mouse at day 11, then 200 μg/mouse): 119 mm^3
- Tumor volume (M ± m) (B16 melanoma; day 9 after inoculation, group 2: intratumoral 200 μg/mouse at day 5): 25.6 mm^3
- Number of alive mice (B16 melanoma; day 12, group 2: intratumoral at day 5): 100%
- Number of alive mice (B16 melanoma; day 12, group 3: intratumoral at day 11): 80^+ %
- Tumor volume (M ± m) (B16 melanoma; day 12 after inoculation, group 2: intratumoral 200 μg/mouse at day 5): 36.6 mm^3
- Tumor volume (M ± m) (B16 melanoma; day 12 after inoculation, group 3: intratumoral 300 μg/mouse at day 11, then 200 μg/mouse): 260 ± 20 mm^3
- Number of alive mice (B16 melanoma; day 14, group 2: intratumoral at day 5): 100%
- Number of alive mice (B16 melanoma; day 14, group 3: intratumoral at day 11): 80%
- Tumor volume (M ± m) (B16 melanoma; day 14 after inoculation, group 2: intratumoral 200 μg/mouse at day 5): 16 ± 6^d mm^3
- Tumor volume (M ± m) (B16 melanoma; day 14 after inoculation, group 3: intratumoral 300 μg/mouse at day 11, then 200 μg/mouse): 184 ± 51 mm^3
- Number of alive mice (B16 melanoma; day 17, group 2: intratumoral at day 5): 100%
- Number of alive mice (B16 melanoma; day 17, group 3: intratumoral at day 11): 80%
- Tumor volume (M ± m) (B16 melanoma; day 17 after inoculation, group 2: intratumoral 200 μg/mouse at day 5): 18.4 mm^3
- Tumor volume (M ± m) (B16 melanoma; day 17 after inoculation, group 3: intratumoral 300 μg/mouse at day 11, then 200 μg/mouse): 250 mm^3
- Number of alive mice (B16 melanoma; day 21, group 2: intratumoral at day 5): 100%
- Number of alive mice (B16 melanoma; day 21, group 3: intratumoral at day 11): 80%
- Tumor volume (M ± m) (B16 melanoma; day 21 after inoculation, group 2: intratumoral 200 μg/mouse at day 5): 42.6 mm^3
- Tumor volume (M ± m) (B16 melanoma; day 21 after inoculation, group 3: intratumoral 300 μg/mouse at day 11, then 200 μg/mouse): 375.4 mm^3
- Number of alive mice (B16 melanoma; day 24, group 2: intratumoral at day 5): 100%
- Number of alive mice (B16 melanoma; day 24, group 3: intratumoral at day 11): 60* %
- Tumor volume (M ± m) (B16 melanoma; day 24 after inoculation, group 2: intratumoral 200 μg/mouse at day 5): 68.3 mm^3
- Tumor volume (M ± m) (B16 melanoma; day 24 after inoculation, group 3: intratumoral 300 μg/mouse at day 11, then 200 μg/mouse): 881 mm^3
- Number of alive mice (B16 melanoma; day 27, group 2: intratumoral at day 5): 100%
- Number of alive mice (B16 melanoma; day 27, group 3: intratumoral at day 11): 60%
- Tumor volume (M ± m) (B16 melanoma; day 27 after inoculation, group 2: intratumoral 200 μg/mouse at day 5): 155.4 mm^3
- Tumor volume (M ± m) (B16 melanoma; day 27 after inoculation, group 3: intratumoral 300 μg/mouse at day 11, then 200 μg/mouse): 2313.5 mm^3
- Number of alive mice (B16 melanoma; day 28, group 2: intratumoral at day 5): 80* %
- Number of alive mice (B16 melanoma; day 28, group 3: intratumoral at day 11): 40%
- Number of alive mice (B16 melanoma; day 31, group 2: intratumoral at day 5): 80%
- Number of alive mice (B16 melanoma; day 31, group 3: intratumoral at day 11): 40%
- animals in which growth of melanoma was suppressed by 100% (B16 melanoma; group No. 2, after a single intratumoral injection at day 5): 2 out of 5
- tumor volume as % of the corresponding figure in the control group (B16 melanoma; intratumoral on the 5th day after inoculation, day of reading not given): 4%

Source: patent US12138322B2, “Method of preventing the development of melanoma” (Vector Vitale IP LLC, priority 2019, dated 2024)
